In patent publication US9006487B2, “Amine-containing lipids and uses thereof” (Massachusetts Institute of Technology, priority 2005, dated 2015):
Where “and” joins values, the source holds several entries; their conditions need not be identical. Equal entries are not always repeated.

Test system: cos-7 cells
Experiment: DNA transfection: luciferase expression relative to Lipofectamine 2000
Assay type: cell-based
Settings: 300 ng Luciferase DNA per well
Method in brief: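 cos-7 cells were transfected with 300 ng/well luciferase DNA complexed with lipid at ratios from 2.5 to 25 w/w. Bright-Glo luminescence was read after 48 hours and converted to ng luciferase by standard curve. Data are percent of the Lipofectamine 2000 control (2.5 w/w).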

[1] = lipid/DNA 2.5 w/w, luciferase assay after 48 hours
[2] = lipid/DNA 5 w/w, luciferase assay after 48 hours
[3] = lipid/DNA 10 w/w, luciferase assay after 48 hours
[4] = lipid/DNA 15 w/w, luciferase assay after 48 hours
[5] = lipid/DNA 20 w/w, luciferase assay after 48 hours
[6] = lipid/DNA 25 w/w, luciferase assay after 48 hours

| Compound | Luciferase expression as a percentage of that achieved using Lipofectamine 2000 (lipid/DNA 2.5 w/w, 72 hours incubation before bright-glo) [%] | Luciferase expression as a percentage of that achieved using Lipofectamine 2000 [1] | Luciferase expression as a percentage of that achieved using Lipofectamine 2000 (lipid/DNA 5 w/w, 72 hours incubation before bright-glo) [%] | Luciferase expression as a percentage of that achieved using Lipofectamine 2000 [2] | Luciferase expression as a percentage of that achieved using Lipofectamine 2000 (lipid/DNA 10 w/w, 72 hours incubation before bright-glo) [%] | Luciferase expression as a percentage of that achieved using Lipofectamine 2000 [3] | Luciferase expression as a percentage of that achieved using Lipofectamine 2000 (lipid/DNA 15 w/w, 72 hours incubation before bright-glo) [%] | Luciferase expression as a percentage of that achieved using Lipofectamine 2000 [4] | Luciferase expression as a percentage of that achieved using Lipofectamine 2000 (lipid/DNA 20 w/w, 72 hours incubation before bright-glo) [%] | Luciferase expression as a percentage of that achieved using Lipofectamine 2000 [5] | Luciferase expression as a percentage of that achieved using Lipofectamine 2000 (lipid/DNA 25 w/w, 72 hours incubation before bright-glo) [%] | Luciferase expression as a percentage of that achieved using Lipofectamine 2000 [6] |
| --- | --- | --- | --- | --- | --- | --- | --- | --- | --- | --- | --- | --- |
| CCCCCCCCCCCCCCCOC(=O)CCN(CC)CCCN(CC)CCC(=O)OCCCCCCCCCCCCCCC [LG64] | 0.3 | 0.0% and 0.2% | 0.3 | 0.0% and 0.1% | 1.8 | 0.0% and 0.1% | 1.8 | 0.0% and 0.1% | 1.2 | 0.0% and 0.1% | 1.6 | 0.0% and 0.2% |
| CCCCCCCCCCCCCCOC(=O)CCN(CCC(=O)OCCCCCCCCCCCCCC)CCN1CCCCC1 [LF82] |  | 0.4% |  | 0.3% |  | 0.7% |  | 0.5% |  | 0.6% |  | 0.8% |
| CCCCCCCCCCCCCCCOC(=O)CCN(CCOC)CCC(=O)OCCCCCCCCCCCCCCC [LG10] |  | 0.0% |  | 0.0% |  | 0.0% |  | 0.0% |  | 0.0% |  | 0.0% |
| CCCCCCCCCCCCOC(=O)CCN(CCC(=O)OCCCCCCCCCCCC)C(C)CN(C)C (centres unmarked) [LD79] |  | 0.1% |  | 0.1% |  | 0.1% |  | 0.2% |  | 0.3% |  | 0.2% |
| CCCCCCCCCCCCCCCCCCOC(=O)CCN(CCOCC)CCC(=O)OCCCCCCCCCCCCCCCCCC [LH11] |  | 0.0% |  | 0.0% |  | 0.0% |  | 0.0% |  | 0.0% |  | 0.0% |
| CCCCCCCCCCCCCCCOC(=O)CCN(CCCO)CCC(=O)OCCCCCCCCCCCCCCC [LG20] |  | 2.0% |  | 2.5% |  | 0.4% |  | 0.2% |  | 0.1% |  | 0.1% |
| CCCCCCCCCCOC(=O)CCN(CCOC)CCC(=O)OCCCCCCCCCC [LB10] |  | 0.1% |  | 0.1% |  | 0.1% |  | 0.1% |  | 0.1% |  | 0.1% |
| CCCCCCCCCCCCNC(=O)CCN(CCCN(CCO)CCO)CCC(=O)NCCCCCCCCCCCC [ND87] |  | 0.0% |  | 0.0% |  | 0.0% |  | 0.0% |  | 0.0% |  | 0.0% |
| CCCCCCCCCCOC(=O)CCN(C)CCN(C)CCC(=O)OCCCCCCCCCC [LB60] |  | 0.4% |  | 0.4% |  | 0.4% |  | 0.4% |  | 0.4% |  | 0.4% |
| CCCCCCCCCCCCOC(=O)CCN(CCC(=O)OCCCCCCCCCCCC)CCN1CCCC1 [LD76] |  | 0.1% |  | 0.1% |  | 0.2% |  | 0.3% |  | 0.2% |  | 0.4% |
| CCCCCCCCCCOC(=O)CCN(CCCN(C)C)CCC(=O)OCCCCCCCCCC [LB80] |  | 0.7% |  | 0.8% |  | 0.1% |  | 0.2% |  | 1.0% |  | 1.5% |
| CCCCCCCCCCCCOC(=O)CCN(CCN(CCC(=O)OCCCCCCCCCCCC)C(C)C)C(C)C [LD62] |  | 0.4% |  | 0.4% |  | 0.4% |  | 0.4% |  | 0.4% |  | 0.5% |
| CCCCCCCCCCCCCCOC(=O)CCN(CCC(=O)OCCCCCCCCCCCCCC)C1CCC(O)CC1 (centres unmarked) [LF38] |  | 0.8% |  | 0.9% |  | 0.9% |  | 0.9% |  | 0.8% |  | 1.0% |
| CCCCCCCCCCCCOC(=O)CC[N+](C)(CCC[N+](C)(CCO)CCO)CCC(=O)OCCCCCCCCCCCC.[I-].[I-] [QD87] |  |  |  |  |  | 0.5% |  | 0.7% |  |  |  |  |
| CCCCCCCCCCCCCCOC(=O)CCN(CCCCCO)CCC(=O)OCCCCCCCCCCCCCC [LF32] |  | 0.1% |  | 0.1% |  | 0.2% |  | 0.1% |  | 0.4% |  | 0.4% |
| CCCCCCCCCCCCCCCOC(=O)CCN(CCC(=O)OCCCCCCCCCCCCCCC)CC(OC)OC [LG13] |  | 0.0% |  | 0.0% |  | 0.0% |  | 0.0% |  | 0.0% |  | 0.0% |
| CCCCCCCCCCCCCCOC(=O)CC[N+](C)(CCC(=O)OCCCCCCCCCCCCCC)CC1COC(C)(C)O1.[I-] (centres unmarked) [QF7] |  | 0.0% |  | 0.0% |  | 0.0% |  | 0.0% |  | 0.0% |  | 0.0% |
